Reference: patent publication US6376426B1, “Herbicidal 3-(heterocycl-1-yl)-uracils” (BASF Aktiengesellschaft, priority 1999, dated 2002)

What was measured:
Assay type in all cases: in vivo
[1] = tested on: Triticum aestivum; assay: Pre-emergence herbicidal test, TRZAW; parameters: key: A rating 0 indicates growth as untreated control; a rating 9 indicates death; conditions: 21 days after spraying
Method: (§1) To evaluate their herbicidal activity, compounds according to the invention are tested using a representative range of plants:
(§2) The pre-emergence tests involve spraying a liquid formulation of the compound onto the soil in which the seeds of the plant species mentioned above has recently been sown.
(§3) The soil used in the tests is a prepared horticultural loam. The formulations used in the tests are prepared from solutions of the test compounds in acetone containing 0.4% by weight of an alkylphenol/ethylene oxide condensate available under the trade mark TRITON X-155. […] In these tests untreated sown soil are used as controls.
(§4) The herbicidal effects of the test compounds are assessed visually twenty-one days after spraying the foliage and the soil and are recorded on a 0-9 scale. A rating 0 indicates growth as untreated control, a rating 9 indicates death. An increase of 1 unit on the linear scale approximates to a 10% increase in the level of effect.

[2] = tested on: Hordeum vulgare; assay: Pre-emergence herbicidal test, HORVW; parameters: key: A rating 0 indicates growth as untreated control; a rating 9 indicates death; conditions: 21 days after spraying
Method: as §1, §2, §3, §4

[3] = tested on: Zea mays; assay: Pre-emergence herbicidal test, ZEAMX; conditions: PRE, 21 days after spraying
Method: as §1, §2, §3, §4

[4] = tested on: Glycine max; assay: Pre-emergence herbicidal test, GLXMA; parameters: key to herbicidal effect (0-9 scale) GLXMA / herbicidal rating GLXMA: A rating 0 indicates growth as untreated control; a rating 9 indicates death; conditions: PRE, 21 days after spraying
Method: as §1, §2, §3, §4

[5] = tested on: Setaria viridis; assay: Pre-emergence herbicidal test, SETVI; conditions: PRE, 21 days after spraying
Method: as §1, §2, §3, §4

[6] = tested on: Echinochloa crus-galli; assay: Pre-emergence herbicidal test, ECHCG; conditions: 21 days after spraying
Method: as §1, §2, §3, §4

[7] = tested on: Alopecurus myosuroides; assay: Pre-emergence herbicidal test, ALOMY; conditions: PRE, 21 days after spraying
Method: as §1, §2, §3, §4

[8] = tested on: Ipomoea hederacea; assay: Pre-emergence herbicidal test, IPOHE; conditions: 21 days after spraying
Method: as §1, §2, §3, §4

[9] = tested on: Galium aparine; assay: Pre-emergence herbicidal test, GALAP; parameters: key to herbicidal effect (0-9 scale) GALAP / herbicidal rating GALAP: A rating 0 indicates growth as untreated control; a rating 9 indicates death; conditions: PRE, 21 days after spraying
Method: as §1, §2, §3, §4

[10] = tested on: Abutilon theophrasti; assay: Pre-emergence herbicidal test, ABUTH; conditions: PRE, 21 days after spraying
Method: as §1, §2, §3, §4

[11] = tested on: Stellaria media; assay: Pre-emergence herbicidal test, STEME; conditions: PRE, 21 days after spraying
Method: as §1, §2, §3, §4

[12] = tested on: Matricaria inodora; assay: Pre-emergence herbicidal test, MATIN; conditions: PRE, 21 days after spraying
Method: as §1, §2, §3, §4

[13] = tested on: Triticum aestivum; assay: Post-emergence herbicidal test, TRZAW; conditions: POST, 21 days after spraying
Method: as §1
(§5) […] After spraying, the plants are placed on greenhouse benches and are cared for in the usual manner, commensurate with conventional greenhouse practices.
as §4

[14] = tested on: Hordeum vulgare; assay: Post-emergence herbicidal test, HORVW; conditions: 21 days after spraying
Method: as §1
These acetone solutions are diluted with water and the resulting formulations applied at dosage levels equivalent to about 1000, 800, 400, 250 or 100 g/ha per hectare of test compound per pot. After spraying, the plants are placed on greenhouse benches and are cared for in the usual manner, commensurate with conventional greenhouse practices.
as §4

[15] = tested on: Zea mays; assay: Post-emergence herbicidal test, ZEAMX; conditions: 21 days after spraying
Method: as §1, §5, §4

[16] = tested on: Glycine max; assay: Post-emergence herbicidal test, GLXMA; conditions: 21 days after spraying
Method: as §1, §5, §4

[17] = tested on: Setaria viridis; assay: Post-emergence herbicidal test, SETVI; parameters: key to herbicidal effect (0-9 scale) SETVI / herbicidal rating SETVI: A rating 0 indicates growth as untreated control; a rating 9 indicates death; conditions: POST, 21 days after spraying
Method: as §1, §5, §4

[18] = tested on: Echinochloa crus-galli; assay: Post-emergence herbicidal test, ECHCG; conditions: 21 days after spraying
Method: as §1, §5, §4

[19] = tested on: Alopecurus myosuroides; assay: Post-emergence herbicidal test, ALOMY; conditions: 21 days after spraying
Method: as §1, §5, §4

[20] = tested on: Ipomoea hederacea; assay: Post-emergence herbicidal test, IPOHE; parameters: key to herbicidal effect (0-9 scale) IPOHE / herbicidal rating IPOHE: A rating 0 indicates growth as untreated control; a rating 9 indicates death; conditions: POST, 21 days after spraying
Method: as §1, §5, §4

[21] = tested on: Galium aparine; assay: Post-emergence herbicidal test, GALAP; conditions: POST, 21 days after spraying
Method: as §1, §5, §4

[22] = tested on: Abutilon theophrasti; assay: Post-emergence herbicidal test, ABUTH; parameters: key to herbicidal effect (0-9 scale) ABUTH / herbicidal rating ABUTH: A rating 0 indicates growth as untreated control; a rating 9 indicates death; conditions: POST, 21 days after spraying
Method: as §1, §5, §4

[23] = tested on: Stellaria media; assay: Post-emergence herbicidal test, STEME; conditions: POST, 21 days after spraying
Method: as §1, §5, §4

[24] = tested on: Matricaria inodora; assay: Post-emergence herbicidal test, MATIN; conditions: POST, 21 days after spraying
Method: as §1, §5, §4

For `Cn1c(C(F)(F)F)cc(=O)n(-n2ccc3ccc(Br)cc32)c1=O` [Example 6], the “herbicidal effect (0-9 scale) TRZAW” value ([1]; 100 g/ha) was 0, the “herbicidal effect (0-9 scale) TRZAW” value ([1]; 400 g/ha) was 0 and the “herbicidal effect (0-9 scale) HORVW” value ([2]; 100 g/ha) was 0. The “herbicidal effect (0-9 scale) HORVW” value ([2]; 400 g/ha) was 1, the “herbicidal effect (0-9 scale) ZEAMX” value ([3]; 100 g/ha) was 2 and the “herbicidal effect (0-9 scale) ZEAMX” value ([3]; 400 g/ha) was 4. For the same molecule, the “herbicidal effect (0-9 scale) GLXMA” value ([4]; 100 g/ha) was 0, the “herbicidal effect (0-9 scale) GLXMA” value ([4]; 400 g/ha) was 0 and the “herbicidal effect (0-9 scale) SETVI” value ([5]; 100 g/ha) was 5. The “herbicidal effect (0-9 scale) SETVI” value ([5]; 400 g/ha) was 8, the “herbicidal effect (0-9 scale) ECHCG” value ([6]; 100 g/ha) was 1 and the “herbicidal effect (0-9 scale) ECHCG” value ([6]; 400 g/ha) was 5. The “herbicidal effect (0-9 scale) ALOMY” value ([7]; 100 g/ha) was 1, the “herbicidal effect (0-9 scale) ALOMY” value ([7]; 400 g/ha) was 3 and the “herbicidal effect (0-9 scale) IPOHE” value ([8]; 100 g/ha) was 1. For the same molecule, the “herbicidal effect (0-9 scale) IPOHE” value ([8]; 400 g/ha) was 2, the “herbicidal effect (0-9 scale) GALAP” value ([9]; 100 g/ha) was 2 and the “herbicidal effect (0-9 scale) GALAP” value ([9]; 400 g/ha) was 9. For the same molecule, the “herbicidal effect (0-9 scale) ABUTH” value ([10]; 100 g/ha) was 6, the “herbicidal effect (0-9 scale) ABUTH” value ([10]; 400 g/ha) was 8 and the “herbicidal effect (0-9 scale) STEME” value ([11]; 100 g/ha) was 1. For the same molecule, the “herbicidal effect (0-9 scale) STEME” value ([11]; 400 g/ha) was 4, the “herbicidal effect (0-9 scale) MATIN” value ([12]; 100 g/ha) was 1 and the “herbicidal effect (0-9 scale) MATIN” value ([12]; 400 g/ha) was 5. For the same molecule, the “herbicidal effect (0-9 scale) TRZAW” value ([13]; 100 g/ha) was 2, the “herbicidal effect (0-9 scale) TRZAW” value ([13]; 400 g/ha) was 3 and the “herbicidal effect (0-9 scale) HORVW” value ([14]; 100 g/ha) was 3. For the same molecule, the “herbicidal effect (0-9 scale) HORVW” value ([14]; 400 g/ha) was 3, the “herbicidal effect (0-9 scale) ZEAMX” value ([15]; 100 g/ha) was 2 and the “herbicidal effect (0-9 scale) ZEAMX” value ([15]; 400 g/ha) was 3. The “herbicidal effect (0-9 scale) GLXMA” value ([16]; 100 g/ha) was 4, the “herbicidal effect (0-9 scale) GLXMA” value ([16]; 400 g/ha) was 8 and the “herbicidal effect (0-9 scale) SETVI” value ([17]; 100 g/ha) was 7. For the same molecule, the “herbicidal effect (0-9 scale) SETVI” value ([17]; 400 g/ha) was 9, the “herbicidal effect (0-9 scale) ECHCG” value ([18]; 100 g/ha) was 4 and the “herbicidal effect (0-9 scale) ECHCG” value ([18]; 400 g/ha) was 8. The “herbicidal effect (0-9 scale) ALOMY” value ([19]; 100 g/ha) was 2, the “herbicidal effect (0-9 scale) ALOMY” value ([19]; 400 g/ha) was 4 and the “herbicidal effect (0-9 scale) IPOHE” value ([20]; 100 g/ha) was 8. For the same molecule, the “herbicidal effect (0-9 scale) IPOHE” value ([20]; 400 g/ha) was 9, the “herbicidal effect (0-9 scale) GALAP” value ([21]; 100 g/ha) was 5 and the “herbicidal effect (0-9 scale) GALAP” value ([21]; 400 g/ha) was 8. For the same molecule, the “herbicidal effect (0-9 scale) ABUTH” value ([22]; 100 g/ha) was 9, the “herbicidal effect (0-9 scale) ABUTH” value ([22]; 400 g/ha) was 9 and the “herbicidal effect (0-9 scale) STEME” value ([23]; 100 g/ha) was 5. The “herbicidal effect (0-9 scale) STEME” value ([23]; 400 g/ha) was 8, the “herbicidal effect (0-9 scale) MATIN” value ([24]; 100 g/ha) was 3 and the “herbicidal effect (0-9 scale) MATIN” value ([24]; 400 g/ha) was 5.
